From US4000293A, “Method of inhibiting bacterial growth with certain selected 3-chloro-2-oxazolidinones” (Interx Research Corporation, priority 1975, dated 1976)

Experiments:
[1] = positive chlorine concentration before and after 14 day incubation of solutions at pH 7.0, 40° C., Table B; assay type: physicochemical; settings: for Final Concn. of positive chlorine: after 14 day incubation at 40° C.; for Final Concn. of positive chlorine / Initial Concn. of positive chlorine: 0.1M phosphate pH 7.0; for Initial Concn. of positive chlorine: before incubation
Protocol: (§1) The germicidal kill times so-obtained at various concentrations of the compounds of the invention and of certain reference compounds are given in Table A below. The compounds are identified in each case by the Example number above where the compounds are described. Here and elsewhere in the specification that follows, concentrations are expressed in parts per million (ppm) of "positive" chlorine, which was determined in each instance by addition of excess aqueous potassium iodide to an acidified solution of the test compound and titration of the iodine liberated with standard sodium thiosulfate solution.
(§2) The stabilities and the time-dependent efficacies of the claimed and reference species were determined by comparing the contact germicidal times and the initial and final concentrations of positive chlorine in solutions of the test species in 0.1M sodium dihydrogen phosphate buffered to pH 7.0 before and after 14 day incubation of the solutions at 40° C. The results are given in Table B below, where the columns headed "Bc Time" refers to the bactericidal time in minutes.

[2] = test system: Staphylococcus aureus ATCC 6538; test: germicidal efficiency test (modified serial dilution; time to complete sterilization), Table A; assay type: cell-based; settings: pH 7.0
Protocol: The compounds are thus useful as bactericidal agents.
(§3) The compounds of the invention and certain reference compounds were tested in the germidical efficiency test, a modification of the standard serial dilution test, against Staphylococcus aureus ATCC 6538. In the germicidal efficiency test, instead of determining the minimum inhibitory concentration as in the serial dilution test procedure, the time required to effect complete sterilization of the micro-organism when exposed to a given concentration of the test substance is determined. This procedure affords a basis of comparison of the time dependent efficacies of the various test substances which gives a measure not only of the germidical efficacy of the test species but, since as will be seen germicidal efficiency of the N-chloro compounds generally tends to diminish with time, apparently owing to decomposition of, and therefore dilution of, the active species, the test procedure also provides an indication of the efficacy to be expected at varying time intervals after solution of the test species in the application medium. The test procedure is described as follows: A stock solution of known concentration of each compound to be tested was prepared in 0.1M sodium dihydrogen phosphate buffered to pH 7.0. To 5 ml. of the test solution was added 0.2 ml. of an overnight broth culture containing from 6×10^6 to 8×10^6 organisms/ml. of Staphylococcus aureus ATCC 6538 and 5 g. of gelysate peptone and 3 g. of beef extract per 1000 ml. of water. At time intervals of 0.5, 1, 2, 3, 4, 5, 6, 7, 8, 9, 10, 15 and 30 minutes, a loop of this suspension was subcultured into 5 ml. of sterile nutrient broth (5 g. of gelysate peptone and 3 g. of beef extract/1000 ml. of water), and the samples were incubated at 37° C. for 7 days with daily observation for evidence of bacterial growth. The time interval in which no bacterial growth was observed after the incubation period in a particular sample was recorded as the end point.
as §1

[3] = stability in the neat state (% chlorine by iodometric titration), Table D; assay type: physicochemical
Protocol: In those instances, the data were acquired at ambient temperature (approximately 23° C.). The method used was similar to that described above in which the rate of disappearance of "positive" chlorine was followed iodometrically by titration of iodine liberated from added potassium iodide with standard sodium thiosulfate solution. Samples of the compounds were individually sealed in ampoules and stored in the dark at 23° C. or 40° C. and weighed amounts removed from time to time for analysis.
For each of the compounds analyzed as indicated above, percent chlorine was plotted as ordinate against time in days as abscissa on semi-logarithmic paper and the points connected by a smooth curve for each compound.

[4] = test system: Staphylococcus aureus ATCC 6538; test: contact germicidal (bactericidal) time before and after 14 day incubation of solutions at 40° C., Table B; assay type: cell-based; settings: pH 7.0; for Bc Time, final: after 14 day incubation at 40° C.; for Bc Time, initial: before incubation, at initial ppm +Cl of the same line
Protocol: as §3, §2

[5] = hydrolytic stability in 0.1M sodium dihydrogen phosphate pH 7.0 at 40° (first-order kinetics), Table C; assay type: physicochemical; settings: for half-life: 0.1m phosphate buffer; for half-life / Rate Constant k: hydrolysis, 0.1M phosphate pH 7.0, 40°; for Rate Constant k: first-order
Protocol: A further measure of the relative stabilities of the reference and claimed species was obtained by measuring the hydrolytic stability of the various species in 0.1M sodium dihydrogen phosphate buffered to pH 7.0 at 40°. For each species, the rate of change in the concentration of positive chlorine in the solution was measured by the volume of standard thiosulfate required to titrate a series of aliquots of a standard volume of the solution at various time intervals using potassium iodide/sodium thiosulfate as detailed above. The volumes of thiosulfate required to titrate each sample so obtained were interpreted as first-order kinetic processes. The hydrolytic stabilities of the reference and claimed species under the experimental conditions were characterized by the reaction rate constants and half-lives obtained from a linear regression analysis of the experimental data. The results obtained are given in Table C below and are also shown in FIG. 1 where the volumes in milliliters of standard thiosulfate required to titrate the positive chlorine in the various samples are plotted as ordinate against time in days as abscissa.

In the case of `CC1(C)COC(=O)N1Cl` [Example 1F, 3-Chloro-4,4-dimethyl-2-oxazolidinone], the “decomposition over the test period (in words)” value ([1]; 14 days, 40° C., pH 7.0) is reported as “decomposed only slightly over the test period”, the “Final Concn. of positive chlorine” value [1] is reported as 527 ppm +Cl and the “Initial Concn. of positive chlorine” value [1] is reported as 534 ppm +Cl. The “Bactericidal Time” value ([2]; 148 ppm +Cl) was 5 min, the “Bactericidal Time” value ([2]; 195 ppm +Cl) was 5 min and the “Bactericidal Time” value ([2]; 368 ppm +Cl) was 3 min. For the same compound, the “Bactericidal Time” value ([2]; 508 ppm +Cl) was 2 min, the “% Cl, neat” value ([3]; 40° C., 0 Days) was 23.4% and the “% Cl, neat” value ([3]; 40° C., 1 Day) was 23.0%. The “% Cl, neat” value ([3]; 40° C., 2 Days) was 23.8%, the “% Cl, neat” value ([3]; 40° C., 7 Days) was 23.5% and the “% Cl, neat” value ([3]; 40° C., 35 Days) was 24.2%. For the same compound, the “% Cl, neat” value ([3]; 40° C., 49 Days) was 23.3%, the “stability in the neat state (in words)” value ([3]; neat, 40° C.) was “surprising stability” and the “Bc Time, final” value [4] was 2 min. For the same compound, the “bactericidal activity after the test period (in words)” value ([4]; after 14 days at 40° C.) was “retained the original level of bactericidal activity”, the “Bc Time, initial” value [4] was 2 min and the half-life [5] was 2040 h. For the same compound, the “Rate Constant k” value [5] was 0.00034 h⁻¹ and the “hydrolytic stability (in words)” value ([5]; pH 7.0, 40°) was “unusual stability”.
In the case of `CC1COC(=O)N1Cl` (stereo not shown) [Example 1B, 3-Chloro-4-methyl-2-oxazolidinone], the “Final Concn. of positive chlorine” value [1] is reported as 14 ppm +Cl, the “Initial Concn. of positive chlorine” value [1] is reported as 610 ppm +Cl and the “Bactericidal Time” value ([2]; 131 ppm +Cl) is reported as 7 min. The “Bactericidal Time” value ([2]; 303 ppm +Cl) was 4 min, the “Bactericidal Time” value ([2]; 610 ppm +Cl) was 1 min and the “% Cl, neat” value ([3]; 23° C., 0 Hrs.) was 26.5%. The “% Cl, neat” value ([3]; 23° C., 3 Hrs.) was 25.9%, the “% Cl, neat” value ([3]; 23° C., 5 Hrs.) was 25.3% and the “% Cl, neat” value ([3]; 23° C., 6.5 Hrs.) was 25.0%. For the same compound, the “% Cl, neat” value ([3]; 23° C., 9 Hrs.) was 25.0%, the “% Cl, neat” value ([3]; 23° C., 10.5 Hrs.) was 24.1% and the “% Cl, neat” value ([3]; 23° C., 21.5 Hrs.) was 21.7%. The “% Cl, neat” value ([3]; 23° C., 24.5 Hrs.) was 21.1%, the “% Cl, neat” value ([3]; 23° C., 29 Hrs.) was 14.4% and the “% Cl, neat” value ([3]; 23° C., 30 Hrs.) was 12.4%. For the same compound, the “% Cl, neat” value ([3]; 23° C., 32 Hrs.) was 6.1%, the “% Cl, neat” value ([3]; 23° C., 35 Hrs.) was 2.0% and the “% Cl, neat” value ([3]; 23° C., 45 Hrs.) was 0%. The “Bc Time, final” value [4] was greater than 30 min, the “Bc Time, initial” value [4] was 1 min and the half-life [5] was 10.9 h. The “Rate Constant k” value [5] was 0.0633 h⁻¹.
For `CC1OC(=O)N(Cl)C1C` (stereo not shown) [Example 1C, 3-Chloro-4,5-dimethyl-2-oxazolidinone], the “Final Concn. of positive chlorine” value [1] was 51 ppm +Cl, the “Initial Concn. of positive chlorine” value [1] was 490 ppm +Cl and the “Bactericidal Time” value ([2]; 117 ppm +Cl) was 10 min. The “Bactericidal Time” value ([2]; 295 ppm +Cl) was 5 min, the “Bactericidal Time” value ([2]; 490 ppm +Cl) was 4 min and the “% Cl, neat” value ([3]; 23° C., 0 Hrs.) was 21.8%. The “% Cl, neat” value ([3]; 23° C., 3 Hrs.) was 20.8%, the “% Cl, neat” value ([3]; 23° C., 5 Hrs.) was 8.2% and the “% Cl, neat” value ([3]; 23° C., 7.5 Hrs.) was 0.47%. The “% Cl, neat” value ([3]; 23° C., 24 Hrs.) was 0.17%, the “Bc Time, initial” value [4] was 4 min and the half-life [5] was 38.5 h. The “Rate Constant k” value [5] was 0.018 h⁻¹.
